We go through one compound from patent US8969570B2, “Beta-lactamase inhibitors” (priority 2012, dated 2015).

Where a name gives a salt, the structure may show the parent alone.

Assay type in all cases: cell-based
Settings in all cases: β-lactam (CXA-101/Ceftolozane or ceftazidime) fixed at 4 μg/mL; compared with Avibactam (comparator compound CCC)

Assay [1] concerns bacterial strains that express KPC β-lactamase (isogenic E. coli strain KPC-2). The assay can be described thus: Synergy MIC (sMIC) assay, KPC strain. From the text: (§1) A set of β-lactamase expressing isogenic E. coli strains was constructed by cloning a β-lactamase gene into a customized derivative of pBR322 (GenBank Accession Number J01749) and transforming the engineered plasmids into E. coli. The NdeI restriction site within the plasmid backbone of pBR322 was removed to generate pBR322 ΔNdeI. The pBR322 ΔNdeI vector itself, minus the blaTEM-1 gene, was amplified using two primers: (1) pBR-Pbla 5′-[…]-3, SEQ ID 1, a primer with an engineered NdeI restriction site at the 3′ end of the blaTEM-1 promoter and (2) pBR-vec-1 5′-[…]-3′, SEQ ID 2, a primer with an engineered BamHI restriction site at the 3′ end of the blaTEM-1 open reading frame. The chloramphenicol resistance gene, cat, was generated by PCR amplification from pKD3 (GenBank Accession Number AY048742) using primers with an engineered NdeI restriction site at the 5′ end (Pbla-cat 5′-[…]-3′, SEQ ID 3) and an engineered BamHI restriction site at the 3′ end (Vec-1-cat 5′-[…]-3′, SEQ ID 4) of the resistance gene. The two PCR products, pBR322 ΔNdeI and cat were ligated together generating pBR-CBST (pBR322 ΔNdeI ΔTEM-1::cat Seq. ID 5) which retains both the pBR322 tetracycline resistance cassette, tetA, and the plasmid origin of replication but the blaTEM-1 gene was replaced by the cat gene.
(§2) Using this engineering strategy a number of plasmids producing β-lactamase genes from different classes (see below) were generated using synthetic genes with an engineered NdeI restriction site at the 5′ end and BamHI restriction site at the 3′ end of each gene (GenScript). Both the synthetic β-lactamase genes and cat gene were ligated into the NdeI/BamHI sites of the pBR322 ΔNdeI PCR product and transformed into electrocompetent E. coli ElectroMax DH10B (Invitrogen/Life Technologies). E. coli DH10B harboring the recombinant plasmids were selected on LB agar (supplemented with 25 μg/mL tetracycline) and single isolated colonies were then inoculated into 5 mL LB media (supplemented with 25 μg/mL tetracycline), and incubated at 37° C. with aeration (250 rpm) for 18 hrs. The cultures were frozen back at −80° C. in 20% glycerol. The DNA sequence of the cloned β-lactamase genes was confirmed. The β-lactamase gene expression in the recombinant E. coli strains was driven by the blaTEM-1 promoter in the pBR-CBST plasmid and was characterized by MIC profiling of the E. coli recombinant strains against comparator β-lactam/BLI combinations in broth microdilution assay.
(§3) The synergy MIC (sMIC) assay determines the concentration of the BLI required to potentiate the activity of a fixed concentration of a β-lactam antibiotic against β-lactamase producing bacterial strains. The experimental protocol was performed according to Clinical and Laboratory Standards Institute (CLSI) guidelines with modifications as described below (CLSI guidelines can be derived from the CLSI document M07-A9 published in January 2012: “Methods for Dilution Antimicrobial Susceptibility Tests for Bacteria That Grow Aerobically; Approved Standard-Ninth Edition”). The assay is set-up by serially diluting the BLI across 11 of the 12 wells in each row of a 96-well broth microdilution assay plate, adding the β-lactam at a fixed concentration to all wells in the assay plate, inoculating the assay plate with bacterial strains, and determining the lowest concentration of BLI required to inhibit overnight bacterial growth.
(§4) To prepare for MIC testing, frozen glycerol stocks of laboratory engineered, isogenic E. coli strains, which contain cloned β-lactamase expressing plasmids were used to streak for isolated colonies on rich, selective LB agar supplemented with 25 μg/mL tetracycline to maintain the plasmid. All strains were incubated at 37° C. for 18-24 hrs.
(§5) On the day of testing, primary cultures were started by scraping off 5-10 colonies from the tetracycline supplemented LB plates containing engineered strains. […]

Assay [2] concerns bacterial strains that express CTX-M-15 β-lactamase (isogenic E. coli strain). In words: Synergy MIC (sMIC) assay, CTX-M-15 strain.
Text: as §1, with “cat gene. […]” for “cat gene.”

Assay [3] deals with bacterial strains that express SHV-12 β-lactamase (isogenic E. coli strain). The assay can be described thus: Synergy MIC (sMIC) assay, SHV-12 strain.
Text: as §1, §2, §3, §4, §5

The test system of assay [4] is bacterial strains that express P99 β-lactamase (isogenic E. coli strain P99 AmpC). In words: Synergy MIC (sMIC) assay, P99 AmpC strain.
Text: as §1, §2, §3, §4, §5

The test system of assay [5] is bacterial strains that express OXA-15 β-lactamase (isogenic E. coli strain). In words: Synergy MIC (sMIC) assay, OXA-15 strain.
Text: as §1, §2, §3, §4, §5

Consider `O=C1N2C[C@@H](CC[C@H]2c2nncs2)N1OS(=O)(=O)O` [Compound 300, (2S,5R)-7-oxo-2-(1,3,4-thiadiazol-2-yl)-1,6-diazabicyclo[3.2.1]octan-6-yl hydrogen sulfate], for which the “activity against bacterial strains that express KPC β-lactamase relative to Avibactam (sMIC)” value in assay [1] is given as “as active or more active than Avibactam”. In addition, in assay [2], the “activity against bacterial strains that express CTX-M-15 β-lactamase relative to Avibactam (sMIC)” value was “as active as Avibactam”. The “activity against bacterial strains that express SHV-12 β-lactamase relative to Avibactam (sMIC)” value in assay [3] is given as “as active as Avibactam”. Further, the “activity against bacterial strains that express P99 β-lactamase relative to Avibactam (sMIC)” value in assay [4] is “as active as Avibactam”. Besides, in assay [5], the “activity against bacterial strains that express OXA-15 β-lactamase relative to Avibactam (sMIC)” value is “more active than Avibactam”.
